# Results: patent US12090164B2, “Genotype-agnostic rescue of cystic fibrosis with small molecule bicarbonate channels” (The Board of Trustees of the University of Illinois, priority 2017, dated 2024)
# “Also recorded” adds a separate entry of the source.
# Columns and labels:
# [1] = aerosolized NaHCO3; cited from earlier work
# NuLi epithelia = experiment: ASL height by confocal microscopy; type: cell-based, human; settings: bumetanide 500 μM
# Experimental: (§1) ASL height was studied using an established fluorescent dye assay (60, 61). Small diameter NuLi and CuFi-1 cultured epithelia were used for this experiment (0.33 cm^2). 24 hours prior to the start of experiment, the apical side of all cultured epithelia was rinsed three times with warm PBS to remove excess mucus. NuLi epithelia were treated with perfluorocarbon (FC-72) vehicle or 500 µM basolateral bumetanide in DMSO vehicle applied to the media, and CuFi epithelia were treated with 20 μL vehicle, 0.005, 0.5, or 50 μM AmB, or 0.5 μM C35deOAmB suspended in perfluorocarbon (FC-72, Sigma), with or without 500 μM basolateral bumetanide in DMSO vehicle applied to the media and incubated for 24 hours at 37° C. After 24 hours, 2.5 μL of a 2 mg/mL 70 kDa Texas Red-dextran conjugate (Molecular Probes) solution in PBS was added to the apical side of the epithelia, followed by 100 μL of FC-770 to prevent evaporation. Then the culture support was placed on top of 100 μL of PBS on a 10 mm glass bottom Fluorodish for imaging (World Precision Instruments). Epithelia were imaged immediately after dye addition and again at 24 hours to examine dye absorption. Three Z-stack images per membrane were taken on an Zeiss LSM700 confocal microscope at 40× oil immersion. These images were analyzed using ImageJ (62) to determine the average ASL height in the center 1300 pixels of each image. Images were smoothed, converted to 8-bit, and thresholded to most accurately represent the red area. The parameters for Analyze Particles were particles from 1-Infinity μm^2 in size and from 0%-100% circularity. Height was determined by dividing the area output in pixels by the known 1300 pixel width and converted to microns using the known scaling factor of 0.49 µm/pixel.
# CuFi-1 epithelia = experiment: ASL height by confocal microscopy; type: cell-based, human
# Experimental: as §1
# V520F allele = V520F allele (Homo sapiens, UniProt P13569, V520F); settings: V520F allele (D259G/V520F); cited from earlier work
# V520F allele, sequence (P13569 whole entry V520F): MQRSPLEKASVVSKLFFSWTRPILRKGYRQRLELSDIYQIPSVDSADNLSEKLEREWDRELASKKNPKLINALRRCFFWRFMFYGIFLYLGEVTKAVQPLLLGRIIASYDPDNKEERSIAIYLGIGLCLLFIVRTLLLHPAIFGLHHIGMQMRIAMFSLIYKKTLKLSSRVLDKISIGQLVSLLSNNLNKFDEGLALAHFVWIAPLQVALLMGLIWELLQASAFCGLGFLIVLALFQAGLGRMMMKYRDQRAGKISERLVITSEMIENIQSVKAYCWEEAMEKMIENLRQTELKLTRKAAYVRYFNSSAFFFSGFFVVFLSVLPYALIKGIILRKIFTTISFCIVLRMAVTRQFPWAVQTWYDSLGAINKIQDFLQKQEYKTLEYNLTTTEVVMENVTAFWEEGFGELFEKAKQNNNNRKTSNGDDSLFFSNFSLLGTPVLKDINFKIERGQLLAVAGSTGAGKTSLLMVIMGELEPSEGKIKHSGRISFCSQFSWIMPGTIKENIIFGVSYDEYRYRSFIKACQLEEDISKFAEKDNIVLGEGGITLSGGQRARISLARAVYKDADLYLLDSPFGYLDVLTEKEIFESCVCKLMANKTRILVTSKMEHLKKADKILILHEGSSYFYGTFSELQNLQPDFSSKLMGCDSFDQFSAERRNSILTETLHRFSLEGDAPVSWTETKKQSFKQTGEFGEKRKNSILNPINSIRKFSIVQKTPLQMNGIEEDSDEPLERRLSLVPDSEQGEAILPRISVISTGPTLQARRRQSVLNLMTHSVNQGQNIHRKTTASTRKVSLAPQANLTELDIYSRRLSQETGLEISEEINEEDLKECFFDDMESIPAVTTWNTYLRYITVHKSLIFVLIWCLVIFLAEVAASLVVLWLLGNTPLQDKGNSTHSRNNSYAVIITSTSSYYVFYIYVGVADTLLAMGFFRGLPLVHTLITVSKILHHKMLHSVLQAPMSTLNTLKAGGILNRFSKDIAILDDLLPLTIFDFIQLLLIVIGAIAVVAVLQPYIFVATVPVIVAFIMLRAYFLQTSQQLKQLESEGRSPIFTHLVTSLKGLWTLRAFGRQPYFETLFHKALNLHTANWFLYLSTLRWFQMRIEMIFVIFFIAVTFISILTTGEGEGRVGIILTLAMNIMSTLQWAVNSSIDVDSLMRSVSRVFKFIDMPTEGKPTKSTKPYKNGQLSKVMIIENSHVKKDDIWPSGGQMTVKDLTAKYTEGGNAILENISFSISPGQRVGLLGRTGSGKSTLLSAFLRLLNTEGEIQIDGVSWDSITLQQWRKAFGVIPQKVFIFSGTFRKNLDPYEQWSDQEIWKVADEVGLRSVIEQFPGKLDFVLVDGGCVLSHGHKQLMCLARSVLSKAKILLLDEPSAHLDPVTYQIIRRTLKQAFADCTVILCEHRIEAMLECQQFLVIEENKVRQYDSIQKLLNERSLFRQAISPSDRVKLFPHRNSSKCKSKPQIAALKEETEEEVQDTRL
# [2] = tested on: CuFi-1 (ΔF508/ΔF508) epithelia; experiment: Basolateral to apical H14CO3- transport; type: cell-based, human; settings: for basolateral to apical H^14CO3^− transport, apical addition: over 10 minutes, AmB or C35deOAmB 2 μM, ivacaftor/forskolin 10 μM
# Experimental: (§2) Small diameter NuLi and CuFi cultured epithelia were used for this experiment (0.33 cm^2). ^14C-labeled sodium HCO3^− was obtained as a sterile 35.7 mM aqueous solution pH 9.5 (MP Biomedicals 0117441H). All experiments were run less than 2 months post seeding. Fresh USG media was added to the basolateral side prior to experimentation. The apical membrane was treated with 20 μL of vehicle, AmB, or ivacaftor/forskolin as a suspension in perfluorocarbon-72 (Sigma Aldrich), and the cultured epithelia were incubated for 48 hours, 7 days, 14 days, or 28 days at 37° C. in a 5% C02 atmosphere. After the end of the treatment period, 5 μL of a 1.4 mM H^14CO3^− stock solution in USG media was added to the basolateral media. The cultured epithelia were then incubated at 37° C. for 10 minutes. After 10 minutes, the apical membrane of the cultured epithelia was immediately washed with 200 μL of PBS. The ASL wash and a 200 μL aliquot of the basolateral media were diluted in scintillation cocktail and analyzed via liquid scintillation counting (23).
# [3] = tested on: CuFi-4 (G551D/ΔF508) epithelia; experiment: Basolateral to apical H14CO3- transport; type: cell-based, human; settings: AmB 2 μM, ivacaftor/forskolin 10 μM
# Experimental: as §2
# [4] = tested on: CF epithelia that lack a G551D or similar allele; settings: cited from earlier work
# [5] = tested on: CuFi-1 (ΔF508/ΔF508) epithelia; experiment: ASL pH in cultured CF airway epithelia (SNARF-dextran); type: cell-based, human; settings: for ASL pH, apical addition: AmB or C35deOAmB 2 μM, ivacaftor/forskolin 10 μM, 2 h, vs vehicle
# Experimental: (§3) Small diameter NuLi, CuFi, and primary cultured epithelia were used for this experiment (0.33 cm^2). The ratiometric pH indicator SNARF-conjugated dextran (Molecular Probes) was used to measure ASL pH. SNARF powder was suspended via sonication in perfluorocarbon (FC-72, Sigma) and distributed onto the apical surface. ASL pH was measured 2 hr later (3, 4, 25). SNARF was excited at 488 nm and emission was recorded at 580 nm and 640 nm using a Zeiss LSM 800 microscope at 40× water immersion for cell line cultures and a Zeiss LSM 510 microscope for primary cultures. To generate a standard curve for pH determination, SNARF was dissolved in colorless pH standards and fluorescence ratios were converted to pH.
# (§4) Agents tested in this assay were first lyophilized into powder and then suspended in the appropriate volume of perfluorocarbon (FC-72, Sigma) and sonicated for 1 minute to suspend. AmBisome should not be sonicated; instead, the fine powder was suspended by vortexing.
# (§5) In all experiments, ASL pH of compound-treated epithelia was measured compared the results to vehicle-treated epithelia.
# (§6) For apical AmB administration, cultured airway epithelia were incubated for 30 min-48 hrs at 37° C. before measurement of ASL pH. For AmB-cholesterol complex and C35deOAmB administration, cultured airway epithelia were incubated for 48 hrs at 37° C. before measurement of ASL pH. To test the effect of […] ATPase inhibition, AmB was administered 47 hours prior to 10 mM ouabain addition, and cultured airway epithelia were incubated for an additional 1 hr at 37° C. before measurement of ASL pH. For 10 μM ivacaftor/10 μM forskolin administration, cultured airway epithelia were incubated for 2 hrs at 37° C. before measurement of ASL pH (25). For basolateral AmB administration, a 2 mM stock of AmB in DMSO was diluted 1000-fold to a final concentration of 2 μM in USG media. The basolateral media of cultured airway epithelia was replaced with the AmB-containing USG media and incubated for 48 hrs at 37° C. before measurement of ASL pH.
# [6] = tested on: CuFi-4 (G551D/ΔF508) epithelia; experiment: as above; type: cell-based, human
# Experimental: as §3, §4, §5, §6
# [7] = tested on: primary sinonasal epithelia from a patient with a G551D mutation; settings: relative to untreated controls; cited from earlier work
# [8] = tested on: CF patients having at least one G551D allele; settings: clinical trials; cited from earlier work
# [9] = tested on: protein ion channel-deficient yeast; settings: cited from earlier work
# [10] = tested on: CuFi-1 (ΔF508/ΔF508) airway epithelia; experiment: Ussing chamber permeabilization of differentiated CF airway epithelia; type: cell-based, human; settings: differentiated CuFi-1 epithelia
# Experimental: A series of natural products and synthetic compounds reported previously to permeabilize liposomes, cells, and/or nasal epithelia of mice to anions (11-14) were tested using an Ussing chamber and differentiated cultures of airway epithelia derived from an immortalized airway epithelial cell line from a CF patient having the most common ΔF508/ΔF508 genotype (CuFi-1) (15). […] The capacity for AmB and C35deOAmB to transport bicarbonate across cholesterol-containing POPC liposomes was tested using an adapted ^13C NMR-based assay (18).
# yeast = settings: cited from earlier work
# [11] = tested on: ASL of primary CF epithelia; Staphylococcus aureus killed; experiment: ASL antibacterial activity (S. aureus-coated gold grids); type: cell-based, human; settings: 2 μM, 48 h
# Experimental: Staphylococcus aureus-coated gold grids were used to measure antibacterial activity of airway epithelial cultures (3, 4). Small diameter primary cultured epithelia were used for this experiment (0.33 cm^2). Bacteria-coated gold TEM grids were placed onto the apical surface of airway epithelia for 1 min after 48 hours of perfluorocarbon (FC-72, Sigma), 2 μM AmB, or 2 μM C35deOAmB treatment. As controls, bacteria-coated grids were also placed in saline or AmB in FC-72 laid over saline to simulate the administration method for 1 minute. After removal, bacteria on the grids were assessed for viability using Live/Dead BacLight Bacterial Viability assay (Invitrogen). Viability was determined in 4-6 fields to determine the percentages of dead bacteria.
# [12] = tested on: primary cultured airway epithelia derived from humans with CF; experiment: ASL pH in primary cultured airway epithelia from CF donors; type: cell-based, human; settings: 9 donors, 2 μM, 48 h
# Experimental: Airway epithelial cells were obtained from human trachea and bronchi of CF and non-CF specimens obtained from the Iowa Donor Network, either as post-mortem specimens or from tissue deemed not fit for transplant. Studies were approved by the University of Iowa Institutional Review Board. After pronase enzymatic digestion, cells were seeded onto collagen-coated semi-permeable membranes (0.33-1.12 cm^2, Corning 3470 polyester, 3460 polyester, 3413 polycarbonate) and grown at an air-liquid interface (52). Airway epithelial cell cultures were analyzed after they had differentiated and at least 14 days post-seeding.
# as §3, §4, §5, §6
compound,measurement,setting,value
O=C([O-])O.[Na+] [NaHCO3],duration of transient increase in pH,[1],~15 minutes
CCCCNc1cc(C(=O)O)cc(S(N)(=O)=O)c1Oc1ccccc1 [bumetanide],ASL height after basolateral bumetanide,NuLi epithelia,decreased ASL height in NuLi epithelia
same,effect of basolateral bumetanide on AmB-mediated increase in ASL height,CuFi-1 epithelia; bumetanide 500 μM,abolished the AmB-mediated increase in ASL height
CC(C)(C)c1cc(C(C)(C)C)c(NC(=O)c2c[nH]c3ccccc3c2=O)cc1O [ivacaftor],response to ivacaftor,V520F allele,refractory to treatment with ivacaftor
same,"basolateral to apical H^14CO3^− transport, apical addition",[2]; listed as Ivacaftor,failed to increase ASL pH or H^14CO3^− secretion
same,"basolateral to apical H^14CO3^− transport, apical addition",[2]; listed as ivacaftor/forskolin,did not
same,H^14CO3^− transepithelial transport,[3],increased the rate of bicarbonate efflux
same,H^14CO3^− transepithelial transport,[3]; listed as ivacaftor/forskolin,increase H^14CO3-transepithelial transport
same,benefit in CF epithelia without G551D,[4],does not show benefit in CF epithelia that lack a G551D or similar allele
same,"ASL pH, apical addition",[5],showed no increase in ASL pH
same,"ASL pH, apical addition",[5]; listed as Ivacaftor,failed to increase ASL pH or H^14CO3^− secretion
same,"ASL pH, apical addition",[5]; listed as ivacaftor/forskolin,an increase in ASL pH was not observed
same,increase in ASL pH,"[6]; AmB 2 μM, ivacaftor/forskolin 10 μM",0.2 unit
same,ASL pH,"[6]; apical AmB 2 μM 48 h, ivacaftor/forskolin 10 μM 2 h",increase ASL pH
same,decrease in viscosity,[7],about 1.5 units
same,increase in ASL pH,[7],0.20 units
same,increase in forced expiratory volume,[8],10%
same,other clinical outcomes,[8],"substantially improved body weight, quality of life, and incidence of pulmonary exacerbation; also recorded: improved FEV1"
C[C@@H]1O[C@@H](O[C@H]2C[C@@H](O)[C@]3(CO)[C@H]4[C@H](O)C[C@]5(C)[C@@H](C6=CC(=O)OC6)CC[C@]5(O)[C@@H]4CC[C@]3(O)C2)[C@H](O)[C@H](O)[C@H]1O [ouabain],effect of basolateral ouabain on AmB-mediated increase in H^14CO3^− transport,"[2]; AmB 2 μM, ouabain 10 mM",abrogated; also recorded: abolished
same,effect of basolateral ouabain on AmB-mediated increase in ASL pH,"[5]; AmB 2 μM 48 h, ouabain 10 mM",abrogated; also recorded: abolished
C35-deoxyamphotericin B [C35deOAmB],yeast growth rescue,[9],failed to rescue yeast growth at any tested concentration; also recorded: did not
same,change in short circuit current / permeabilization of epithelia,[10],Little or no permeabilization
same,toxicity / fungicidal activity to yeast,yeast,still maintains potent fungicidal activity
same,"basolateral to apical H^14CO3^− transport, apical addition",[2],did not; also recorded: caused no increase ASL ^14C bicarbonate; also recorded: did not raise ASL pH or increase H^14CO3^− secretion
same,ASL antibacterial activity (% of S. aureus killed after exposure to ASL),[11],had no effect
same,"ASL pH, apical addition",[5],an increase in ASL pH was not observed; also recorded: No increase in pH was observed; also recorded: did not raise ASL pH or increase H^14CO3^− secretion
same,"ASL height, apical addition",CuFi-1 epithelia; 0.5 μM,did not increase ASL height
same,"ASL pH, apical addition",[12],did not increase ASL pH
